According to US20120040966A1, “ANTI-VIRAL COMPOUNDS, TREATMENT, AND ASSAY” (priority 2008, published 2012):
Like-named read-outs stand apart in the source and are kept apart here.

What was measured:
[1] = tested on: Influenza virus strain A/CA/04/2009 (H1N1); assay: organism not typed; assay type: cell-based; settings: MDCK, 72 h, read-out: H1N1 EC50 (@ 50% Via)
[2] = tested on: Madin Darby Canine Kidney (MDCK) cells; assay: cells; assay type: cell-based; settings: Canis lupus familiaris, MDCK, read-out: IC50 (toxicity)
[3] = tested on: influenza strain A/VN/1203/2004 (H5N1); assay: microbe, parasite or virus in culture; assay type: cell-based, Influenza A virus (H5N1)
[4] = Influenza A virus, H5N1, MDCK, 72 h, read-out: H5N1 EC50 (@ 50% Via)
[5] = Influenza A virus, H5N1, MDCK, 72 h, read-out: H5N1 EC50 (Inf Pt)
[6] = read-out: H5N1 EC50 (@ 50% Via)

SMILES | EC50 [1] [µM] | IC50 [2] [µM] | EC50 [3, 4] [µM] | EC50 [3, 5] [µM] | EC50 [3, 6] [µM] | EC50 ([3]; read-out: H5N1 EC50 (Inf Pt)) [µM]
Cc1ccc(C2NC(=O)NC3=C2CCCc2ccccc23)cc1 (centres unmarked) [compound 22083] | 9.5 | > 50 | 28 | – | – | –
COc1ccc2c(c1)C1=C(CC2)C(c2ccc(C)cc2)NC(=O)N1 (centres unmarked) [compound 22087] | 47 | > 50 | > 50 | – | – | –
Cc1ccc(C2NC(=O)NC3=C2COc2ccccc23)cc1C (centres unmarked) [compound 22105] | 14.9 | > 50 | 1.8 | 1 | 2.7 | 1.9
COc1cccc(C2NC(=O)NC3=C2COc2ccccc23)c1 (centres unmarked) [compound 22107] | 46 | > 50 | > 50 | > 50 | – | –
Cc1cccc(C2NC(=O)NC3=C2COc2ccccc23)c1 (centres unmarked) [compound 22109] | > 50 | > 50 | – | – | – | –
COc1cccc2c1CCC1=C2NC(=O)NC1c1ccc(C)c(C)c1 (centres unmarked) [compound 22113] | 16.8 | > 50 | – | 2.4 | – | 4.4
O=C1NC2=C(CCc3ccccc32)C(c2ccc(C(F)(F)F)cc2)N1 (centres unmarked) [compound 22119] | 11.7 | > 50 | 32.9 | 14.8 | – | –
O=C1NC2=C(CCc3ccccc32)C(c2ccc3c(c2)OCO3)N1 (centres unmarked) [compound 22121] | > 50 | 29.6 | 0.39 | 0.34 | – | 0.22
COc1cccc2c1CCC1=C2NC(=O)NC1c1ccc(C)cc1 (centres unmarked) [compound 22123] | > 50 | > 50 | 18.3 | 10.9 | – | –
COc1ccc(-c2nc(=O)[nH]c3c2CCc2ccccc2-3)cc1 [compound 22125] | 24 | > 50 | 0.96 | 0.92 | 1.62 | 1.45
O=C1NC2=C(CCc3ccccc32)C(c2cccc([N+](=O)[O-])c2)N1 (centres unmarked) [compound 22347] | > 50 | > 50 | 5.5 | 4.2 | – | –
O=C1NC2=C(CCc3ccccc32)C(c2ccc([N+](=O)[O-])cc2)N1 (centres unmarked) [compound 22349] | 17.7 | > 50 | 1.17 | 0.95 | – | –
O=C1NC2=C(COc3ccccc32)C(c2ccc(Cl)c(Cl)c2)N1 (centres unmarked) [compound 22404] | > 50 | > 50 | 1.6 | – | 0.94 | –
COc1ccc(C2NC(=O)NC3=C2CCc2ccccc23)cc1Br (centres unmarked) [compound 22405] | 0.425 | > 50 | – | – | – | –
O=C1NC2=C(CCc3ccccc32)C(c2ccc(Cl)cc2Cl)N1 (centres unmarked) [compound 22406] | > 50 | > 50 | > 50 | > 50 | – | –
O=C1NC2=C(CCc3ccccc32)C(c2ccc(F)c(Br)c2)N1 (centres unmarked) [compound 22409] | 1.4 | > 50 | – | – | – | –
COc1ccc(C2NC(=O)NC3=C2CSc2ccccc23)cc1Br (centres unmarked) [compound 22412] | 0.351 | > 50 | – | – | – | –
O=C1NC2=C(C(c3ccc4c(c3)OCO4)N1)C(c1ccccc1)Oc1ccccc12 (centres unmarked) [compound 22421] | > 50 | > 50 | > 50 | > 50 | – | –
COc1ccc(C2NC(=O)NC3=C2CCc2ccccc23)cc1C (centres unmarked) [compound 22516] | 10 | > 50 | – | – | – | –
COc1cc(C2NC(=O)NC3=C2CCc2ccccc23)ccc1F (centres unmarked) [compound 22517] | > 50 | > 50 | 9.6 | 7.2 | – | –
CCOc1cccc(C2NC(=O)NC3=C2CCc2ccccc23)c1 (centres unmarked) [compound 22520] | > 50 | > 50 | – | 7.1 | – | –
COc1ccc(C2NC(=O)NC3=C2COc2ccccc23)cc1Br (centres unmarked) [compound 22521] | 4 | > 50 | – | – | – | –
COc1ccc(C2NC(=O)NC3=C2CCc2ccccc23)cc1F (centres unmarked) [compound 22522] | 3.8 | > 50 | 0.26 | 0.19 | – | –
COc1ccc(C2NC(=O)NC3=C2CCc2ccccc23)cc1OC (centres unmarked) [compound 22524] | 39 | > 50 | 7.4 | 7 | – | –
COc1ccc(C2NC(=O)NC3=C2CCc2c(C)cc(C)cc23)cc1Br (centres unmarked) [compound 22526] | > 50 | 6.9 | > 48 | > 48 | – | –
COc1ccc(C2NC(=O)NC3=C2CC(C)c2ccccc23)cc1Br (centres unmarked) [compound 22700] | 0.0985 | > 48 | – | – | – | –
O=C1NC2=C(COc3ccccc32)C(c2ccc(O)c(Br)c2)N1 (centres unmarked) [compound 22701] | 1.6 | > 20 | 0.0262 | 0.021 | 0.027 | 0.027

SMILES | EC50 [1] [µM] | IC50 [2] [µM] | EC50 [3, 4] [µM] | EC50 [3, 5] [µM] | EC50 [3, 6] [µM] | EC50 ([3]; read-out: H5N1 EC50 (Inf Pt)) [µM]
COc1c(Br)cc(C2NC(=O)NC3=C2CCc2ccccc23)cc1Br (centres unmarked) [compound 22703] | > 40 | > 40 | 38 | > 40 | – | –
CCOc1c(Br)cc(C2NC(=O)NC3=C2CCc2ccccc23)cc1Br (centres unmarked) [compound 22704] | > 40 | > 40 | > 40 | > 40 | – | –
Cc1cc(C2NC(=O)NC3=C2CCc2ccccc23)ccc1O (centres unmarked) [compound 22706] | 4.8 | > 50 | – | – | – | –
O=C1NC2=C(CCc3ccccc32)C(c2ccc(O)c(Br)c2)N1 (centres unmarked) [compound 22709] | 0.118 | > 53 | – | – | – | –
CCOc1ccc(C2NC(=O)NC3=C2CCc2ccccc23)cc1C (centres unmarked) [compound 22711] | 37 | > 50 | 1.3 | 1.2 | – | –
COc1ccc(C2NC(=O)NC3=C2CCc2c(OC)cccc23)cc1Br (centres unmarked) [compound 22722] | 1.1 | > 0.062 | > 0.062 | > 0.062 | – | –
COc1ccc(C2NC(=O)NC3=C2CCCc2ccccc23)cc1Br (centres unmarked) [compound 23096] | 0.153 | > 40 | 0.242 | 0.28 | – | –
CC(=O)Oc1ccc(C2NC(=O)NC3=C2COc2ccccc23)cc1Br (centres unmarked) [compound 23097] | 1 | > 40 | 0.0928 | 0.102 | – | –
O=C1NC2=C(COc3ccccc32)C(c2ccc(F)c(Br)c2)N1 (centres unmarked) [compound 23098] | > 40 | > 40 | 1.2 | 1.3 | – | –
COc1ccc(C2NC(=O)NC3=C2CN(C(C)=O)c2ccccc23)cc1Br (centres unmarked) [compound 23099] | 0.0062 | > 40 | – | – | – | –
COc1ccc(C2NC(=O)NC3=C2CCc2ncccc23)cc1Br (centres unmarked) [compound 23102] | > 40 | > 40 | 14.5 | – | – | –
CCC(=O)N1CC2=C(NC(=O)NC2c2ccc(OC)c(Br)c2)c2ccccc21 (centres unmarked) [compound 23205] | 10.1 | > 40 | 0.193 | 0.189 | – | –
COc1ccc(C2NC(=O)NC3=C2CN(C(=O)COC(C)=O)c2ccccc23)cc1Br (centres unmarked) [compound 23206] | 0.0257 | > 40 | 0.022 | 0.022 | 0.0119 | 0.0112
COc1ccc(C2NC(=O)NC3=C2CN(C(=O)c2ccco2)c2ccccc23)cc1Br (centres unmarked) [compound 23209] | > 40 | > 40 | > 40 | > 40 | – | –
COc1ccc(C2NC(=O)NC3=C2COc2ccccc23)cc1C (centres unmarked) [compound 23210] | 3.1 | > 40 | 0.332 | 0.307 | – | –
COc1ccc(C2NC(=O)NC3=C2CN(C(=O)CN2CCOCC2)c2ccccc23)cc1Br (centres unmarked) [compound 23272] | 3.5 | > 40 | 9.1 | 8.7 | – | –
COc1ccc(C2NC(=O)NC3=C2CN(C(=O)c2ccc4c(c2)OCO4)c2ccccc23)cc1Br (centres unmarked) [compound 23274] | > 40 | > 40 | > 40 | > 40 | – | –
COc1ccc(C2NC(O)NC3=C2CN(C(=O)CO)c2ccccc23)cc1Br (centres unmarked) [compound 23275] | < 0.067 | > 40 | 0.0027 | 0.0027 | – | –
COc1ccc(C2NC(=O)NC3=C2CN(C(=O)CNCCO)c2ccccc23)cc1Br (centres unmarked) [compound 24717] | 5.6 | > 40 | 2.1 | 2.1 | – | –
COc1ccc(C2NC(=O)NC3=C2CN(C(=O)CNC2CC2)c2ccccc23)cc1Br (centres unmarked) [compound 24718] | 8 | > 40 | 9.7 | 9.7 | – | –
COc1ccc(C2NC(=O)NC3=C2CN(C(=O)Cn2ccnc2)c2ccccc23)cc1Br (centres unmarked) [compound 25010] | – | > 40 | < 0.316 | 0.082 | – | –
COc1ccc(C2NC(=O)NC3=C2CN(C(=O)CNCCN2CCOCC2)c2ccccc23)cc1Br (centres unmarked) [compound 25011] | – | > 40 | 3.9 | 3.9 | – | –
COc1ccc(C2NC(=O)NC3=C2CN(C(=O)CN(C)C)c2ccccc23)cc1Br (centres unmarked) [compound 25012] | 3 | > 40 | < 0.33 | 0.2 | – | –
COc1ccc(C2NC(=O)NC3=C2CN(C(=O)CNC(C)=O)c2ccccc23)cc1Br (centres unmarked) [compound 25350] | 0.622 | > 40 | 0.045 | 0.044 | – | –
COC(=O)N1CC2=C(NC(=O)NC2c2ccc(OC)c(Br)c2)c2ccccc21 (centres unmarked) [compound 25408] | 9.7 | > 40 | 0.208 | 0.201 | – | –
COc1ccc(C2NC(=O)NC3=C2CN(C(=O)CSCCN(C)C)c2ccccc23)cc1Br (centres unmarked) [compound 25410] | 15.6 | – | 0.714 | 0.669 | – | –
